Where two headings read alike, the source gives them in different places.
Key:
[1] = biological target: Ba/F3-EGFR (d746-750/T790M/C797S) (Homo sapiens, UniProt P00533, DEL746-750/T790M/C797S, cells depend on it); assay: Growth inhibition of cell line expressing EGFR (d746-750/T790M/C797S); type: cell-based, mouse; conditions: read-out: BaF3_EGFR (d746-750/T790M/C797S) IC50 value
Excerpt: Test for inhibitory activity against the growth of cell lines expressing wild-type and mutated EGFRs (in vitro)
(1) Mouse cell line Ba/F3-EGFR (d746-750/T790M/C797S) transfected with and stably expressing EGFR (d746-750/T790M/C797S), mouse cell Ba/F3-EGFR (L858R/T790M/C797S) transfected with and stably expressing EGFR (L858R/T790M/C797S), and mouse cell line Ba/F3-EGFR (WT) transfected with and stably expressing wild-type EGFR were each suspended in RPMI-1640 cell culture medium (RPMI-1640, 10% FBS, 100 unit/ml penicillin, 0.1 mg/ml streptomycin). In the case of the mouse cell line Ba/F3-EGFR (WT), RPMI-1640 cell culture medium containing EGF at a final concentration of 50 ng/ml was used to suspend this cell line. It should be noted that the mouse cell line Ba/F3-EGFR (d746-750/T790M/C797S) transfected with and stably expressing EGFR (d746-750/T790M/C797S), the mouse cell line Ba/F3-EGFR (L858R/T790M/C797S) transfected with and stably expressing EGFR (L858R/T790M/C797S) and the mouse cell line Ba/F3-EGFR (WT) transfected with and stably expressing wild-type EGFR were prepared by using nucleotide sequences encoding the proteins of SEQ ID NOs: 1 and 2 in accordance with Test Example 1 in WO2018/079310, These cell suspensions were seeded in wells of 96-well flat -bottomed plates. The compounds of the present invention were dissolved in DMSO, and serial dilutions of these test compounds were prepared with DMSO (1000-fold of the final concentration). Each test compound solution in DMSO or DMSO alone was diluted with RPMI-1640 cell culture medium for each cell line, and this dilution was added to wells of the cell culture plate such that the final concentration of DMSO was 0.1%, followed by culture at 37° C. for 3 days in a 5% carbon dioxide gas-containing incubator. Before and after addition of each test compound solution in DMSO, the number of cells was counted using the CellTiter-Glo® system (Promega) on the basis of the protocol recommended by Promega.
In each cell line, the rate of cell growth inhibition was calculated according to the equation shown below in wells to which each test compound was added at different concentrations. Moreover, the inhibition rate at each concentration was plotted for each test compound, and the concentration of each test compound required to give 50% cell survival rate, i.e., IC50 (nM) was determined by curve fitting software XLfit (IDBS).
Cell survival rate (%)=T/C×100
T: emission intensity in a well cultured for 3 days after addition of a test compound solution
C: emission intensity in a well cultured for 3 days after addition of DMSO
In accordance with the same procedures as shown in Test Example 2, the compounds of the present invention were tested for their inhibitory activity against the growth of the cell hoes expressing wild-type and mutated EGFRs.

human EGFR (WT) = biological target: T1, human EGFR (WT) (Homo sapiens, UniProt P00533); assay: Inhibitory activity against EGFR (WT) kinase; type: biochemical
T1 construct: purchased Carna Biosciences Inc., Japan
T1 sequence (P00533 25-1210): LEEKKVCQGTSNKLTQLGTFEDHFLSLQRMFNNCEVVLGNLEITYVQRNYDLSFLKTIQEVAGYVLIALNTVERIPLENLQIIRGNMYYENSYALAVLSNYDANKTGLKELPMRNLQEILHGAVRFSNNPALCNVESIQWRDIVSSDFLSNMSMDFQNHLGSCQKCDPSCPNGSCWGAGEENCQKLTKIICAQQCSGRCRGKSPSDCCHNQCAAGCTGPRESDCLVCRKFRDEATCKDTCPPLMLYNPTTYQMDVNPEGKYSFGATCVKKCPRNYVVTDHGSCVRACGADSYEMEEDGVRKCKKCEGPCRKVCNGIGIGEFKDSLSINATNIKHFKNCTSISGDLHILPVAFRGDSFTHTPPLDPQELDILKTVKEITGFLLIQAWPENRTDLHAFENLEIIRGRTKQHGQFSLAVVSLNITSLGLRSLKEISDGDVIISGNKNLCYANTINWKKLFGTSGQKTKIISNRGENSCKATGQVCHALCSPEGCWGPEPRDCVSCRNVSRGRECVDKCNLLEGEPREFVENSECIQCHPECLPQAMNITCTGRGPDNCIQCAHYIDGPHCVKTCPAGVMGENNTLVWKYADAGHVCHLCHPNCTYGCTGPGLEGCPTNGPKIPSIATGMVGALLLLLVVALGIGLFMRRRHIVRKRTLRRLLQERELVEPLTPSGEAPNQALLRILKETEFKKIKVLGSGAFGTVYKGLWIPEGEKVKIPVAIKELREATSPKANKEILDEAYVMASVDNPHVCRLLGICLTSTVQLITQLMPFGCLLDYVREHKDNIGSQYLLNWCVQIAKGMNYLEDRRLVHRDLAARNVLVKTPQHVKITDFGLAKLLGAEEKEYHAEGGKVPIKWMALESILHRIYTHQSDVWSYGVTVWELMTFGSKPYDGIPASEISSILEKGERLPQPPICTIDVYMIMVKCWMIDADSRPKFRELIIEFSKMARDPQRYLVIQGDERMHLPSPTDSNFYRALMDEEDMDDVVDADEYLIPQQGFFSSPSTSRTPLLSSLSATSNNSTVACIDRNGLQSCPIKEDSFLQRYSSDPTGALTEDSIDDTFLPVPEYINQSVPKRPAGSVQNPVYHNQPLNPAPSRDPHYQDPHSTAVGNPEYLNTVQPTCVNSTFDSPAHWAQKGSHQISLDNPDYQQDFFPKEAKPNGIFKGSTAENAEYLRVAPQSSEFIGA
In short: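 Purified recombinant human wild-type EGFR kinase, with ATP at 1.5 μM final. Compound inhibition of kinase activity read out and fitted to give IC50 (nM).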

[2] = biological target: T2, human EGFR (d746-750/C797S) (Homo sapiens, UniProt P00533, C797S/DEL746-750); assay: Inhibitory activity against EGFR (d746-750/C797S) kinase; type: biochemical
T2 construct: purchased SignalChem
T2 sequence (P00533 with tags, fused parts or gaps DEL746-750/C797S): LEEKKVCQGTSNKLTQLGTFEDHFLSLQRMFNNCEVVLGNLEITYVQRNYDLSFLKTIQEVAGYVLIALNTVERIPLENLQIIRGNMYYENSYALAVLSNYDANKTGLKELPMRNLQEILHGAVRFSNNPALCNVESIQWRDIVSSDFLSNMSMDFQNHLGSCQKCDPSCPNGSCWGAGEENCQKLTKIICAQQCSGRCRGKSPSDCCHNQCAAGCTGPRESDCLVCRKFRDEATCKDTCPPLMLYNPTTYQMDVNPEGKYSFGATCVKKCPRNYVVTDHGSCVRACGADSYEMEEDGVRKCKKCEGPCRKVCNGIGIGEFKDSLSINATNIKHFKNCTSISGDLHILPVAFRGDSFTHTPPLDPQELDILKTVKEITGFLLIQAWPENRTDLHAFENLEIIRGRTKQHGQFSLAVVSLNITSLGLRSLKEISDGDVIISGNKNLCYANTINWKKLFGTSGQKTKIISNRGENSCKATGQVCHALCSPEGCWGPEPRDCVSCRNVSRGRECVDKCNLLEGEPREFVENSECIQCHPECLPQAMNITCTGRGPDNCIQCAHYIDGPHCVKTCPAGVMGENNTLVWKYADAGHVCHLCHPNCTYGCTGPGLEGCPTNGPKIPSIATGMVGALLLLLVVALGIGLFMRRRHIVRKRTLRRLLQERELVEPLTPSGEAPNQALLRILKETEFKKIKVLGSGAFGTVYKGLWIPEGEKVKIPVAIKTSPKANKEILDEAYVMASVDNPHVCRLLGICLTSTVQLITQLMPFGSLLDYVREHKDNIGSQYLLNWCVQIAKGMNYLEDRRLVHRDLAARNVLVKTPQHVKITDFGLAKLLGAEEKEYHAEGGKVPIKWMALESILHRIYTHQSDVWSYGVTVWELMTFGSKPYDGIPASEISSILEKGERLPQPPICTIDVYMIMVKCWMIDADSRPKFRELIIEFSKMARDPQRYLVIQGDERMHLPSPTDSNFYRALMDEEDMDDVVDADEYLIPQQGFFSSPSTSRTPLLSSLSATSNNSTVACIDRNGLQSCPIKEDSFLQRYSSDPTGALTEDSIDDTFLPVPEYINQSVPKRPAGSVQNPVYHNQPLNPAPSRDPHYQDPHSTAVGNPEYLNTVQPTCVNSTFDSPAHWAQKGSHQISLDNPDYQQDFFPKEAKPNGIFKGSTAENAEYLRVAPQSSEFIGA
In short: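 Recombinant human EGFR d746-750/C797S in 13.5 mM Tris pH 7.5 with 2 mM DTT and 0.009% Tween-20. Reaction ran 60 min with 14 μM ATP, 20 mM MgCl2 and 12.5 mM MnCl2, stopped by 40 mM EDTA. IC50 in nM.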

[3] = Test Example 2, Table 7, culture 3 days, CellTiter-Glo
[4] = Test Example 1, Table 6, ATP 1.5 μM
[5] = Test Example 1, Table 4, ATP 14 μM, 60 minutes
[6] = Test Example 4, Table 13, same procedures as Test Example 2

Chain of Ba/F3-EGFR (d746-750/T790M/C797S) (P00533 with tags, fused parts or gaps DEL746-750/T790M/C797S): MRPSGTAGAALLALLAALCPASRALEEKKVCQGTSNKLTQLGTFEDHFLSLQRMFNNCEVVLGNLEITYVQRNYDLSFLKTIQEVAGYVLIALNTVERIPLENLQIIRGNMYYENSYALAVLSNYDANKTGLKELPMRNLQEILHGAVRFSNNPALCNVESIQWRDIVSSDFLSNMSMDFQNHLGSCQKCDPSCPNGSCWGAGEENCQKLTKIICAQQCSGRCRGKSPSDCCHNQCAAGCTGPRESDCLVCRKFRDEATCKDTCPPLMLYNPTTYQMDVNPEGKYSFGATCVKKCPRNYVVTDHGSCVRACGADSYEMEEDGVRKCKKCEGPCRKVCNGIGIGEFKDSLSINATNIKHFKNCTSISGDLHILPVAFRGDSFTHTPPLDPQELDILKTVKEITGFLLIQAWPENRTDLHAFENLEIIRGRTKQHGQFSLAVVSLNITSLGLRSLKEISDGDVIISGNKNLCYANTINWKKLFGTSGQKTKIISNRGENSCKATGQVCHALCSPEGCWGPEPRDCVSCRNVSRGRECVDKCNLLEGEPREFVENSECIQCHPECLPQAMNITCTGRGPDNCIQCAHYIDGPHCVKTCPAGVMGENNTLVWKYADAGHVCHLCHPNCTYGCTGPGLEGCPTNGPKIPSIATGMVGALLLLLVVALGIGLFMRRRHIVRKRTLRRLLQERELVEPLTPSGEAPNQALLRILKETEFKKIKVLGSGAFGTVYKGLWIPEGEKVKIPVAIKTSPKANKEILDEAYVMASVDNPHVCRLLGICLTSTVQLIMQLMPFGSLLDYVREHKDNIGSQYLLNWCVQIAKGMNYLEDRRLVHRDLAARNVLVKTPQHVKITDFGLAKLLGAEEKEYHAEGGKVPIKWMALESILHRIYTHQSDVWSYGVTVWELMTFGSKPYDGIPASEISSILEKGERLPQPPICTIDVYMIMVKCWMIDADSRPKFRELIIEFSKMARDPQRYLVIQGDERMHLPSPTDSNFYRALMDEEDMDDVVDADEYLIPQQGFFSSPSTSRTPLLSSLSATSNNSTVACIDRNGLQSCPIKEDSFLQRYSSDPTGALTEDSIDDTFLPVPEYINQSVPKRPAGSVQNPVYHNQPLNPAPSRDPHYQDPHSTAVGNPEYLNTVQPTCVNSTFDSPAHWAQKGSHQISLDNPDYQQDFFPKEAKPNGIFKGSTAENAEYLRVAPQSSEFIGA

Structure (SMILES) | GI50 [1, 3] [nM] | IC50 (human EGFR (WT); [4]) [nM] | IC50 [2, 5] [nM] | GI50 [1, 6] [nM] | IC50 (human EGFR (WT); Test Example 3, Table 12; same procedures as 5) in Test Example 1) [nM] | IC50 ([2]; Test Example 3, Table 10; same procedures as 3) in Test Example 1) [nM]
C#Cc1c(-c2cnc3ccccc3c2)c2c(N)ncnc2n1C12CCC(NC(=O)c3cncnc3)(CC1)C2 [Example 2, N-(4-(4-Amino-6-ethynyl-5-(quinolin-3-yl)-7H-pyrrolo[2,3-d]pyrimidin-7-yl)bicyclo-[2.2.1]heptan-1-yl)pyrimidine-5-carboxamide] | 20 | 0.52 |  |  |  | 
C#Cc1c(-c2cnc3ccccc3c2)c2c(N)ncnc2n1C12CCC(NC(=O)c3ccnn3C3CC3)(CC1)C2 [Example 20, N-(4-(4-Amino-6-ethynyl-5-(quinolin-3-yl)-7H-pyrrolo[2,3-d]pyrimidin-7-yl)bicyclo-[2.2.1]heptan-1-yl)-1-cyclopropyl-1H-pyrazole-5-carboxamide] |  | 2.1 | 0.68 | 31 |  | 
C#Cc1c(-c2cnc3ccccc3c2)c2c(N)ncnc2n1C12CCC(NC(=O)c3ccccc3)(CC1)C2 [Example 1, N-(4-(4-Amino-6-ethynyl-5-(quinolin-3-yl)-7H-pyrrolo[2,3-d]pyrimidin-7-yl)bicyclo-[2.2.1]heptan-1-yl)benzamide] |  | 2.1 | 1.8 | 98 |  | 
C#Cc1c(-c2cnc3ccccc3c2)c2c(N)ncnc2n1C12CCC(CNC(=O)c3ccnn3C)(CC1)C2 [Example 13, N-((4-(4-Amino-6-ethynyl-5-(quinolin-3-yl)-7H-pyrrolo[2,3-d]pyrimidin-7-yl)bicyclo-[2.2.1]heptan-1-yl)methyl)-1-methyl-1H-pyrazole-5-carboxamide] | 239 | 0.61 | 0.67 |  |  | 
C#Cc1c(-c2cnc3ccccc3c2)c2c(N)ncnc2n1C12CCC(NC(=O)c3nccn3C)(CC1)C2 [Example 23, N-(4-(4-Amino-6-ethynyl-5-(quinolin-3-yl)-7H-pyrrolo[2,3-d]pyrimidin-7-yl)bicyclo-[2.2.1]heptan-1-yl)-1-methyl-1H-imidazole-2-carboxamide] |  | 1.4 | 0.7 | 31 |  | 
C#Cc1c(-c2cnc3ccccc3c2)c2c(N)ncnc2n1C12CCC(NC(=O)C(F)F)(CC1)C2 [Example 27, N-(4-(4-Amino-6-ethynyl-5-(quinolin-3-yl)-7H-pyrrolo[2,3-d]pyrimidin-7-yl)bicyclo-[2.2.1]heptan-1-yl)-2,2-difluoroacetamide] |  | 2.4 | 1.2 | 110 |  | 
C#Cc1c(-c2cnc3ccccc3c2)c2c(N)ncnc2n1C12CCC(NC(=O)c3cnns3)(CC1)C2 [Example 18, N-(4-(4-Amino-6-ethynyl-5-(quinolin-3-yl)-7H-pyrrolo[2,3-d]pyrimidin-7-yl)bicyclo-[2.2.1]heptan-1-yl)-1,2,3-thiadiazole-5-carboxamide] |  | 1.4 | 0.78 | 124 |  | 
C#Cc1c(-c2cnc3ccccc3c2)c2c(N)ncnc2n1C12CCC(CNC(=O)c3cnc(C)cn3)(CC1)C2 [Example 14, N-((4-(4-Amino-6-ethynyl-5-(quinolin-3-yl)-7H-pyrrolo[2,3-d]pyrimidin-7-yl)bicyclo-[2.2.1]heptan-1-yl)methyl)-5-methylpyrazine-2-carboxamide] | 204 | 1.7 | 0.79 |  |  | 
C#Cc1c(-c2cnc3ccccc3c2)c2c(N)ncnc2n1C12CCC(NC(=O)c3ccnn3C)(CC1)C2 [Example 24, N-(4-(4-Amino-6-ethynyl-5-(quinolin-3-yl)-7H-pyrrolo[2,3-d]pyrimidin-7-yl)bicyclo-[2.2.1]heptan-1-yl)-1-methyl-1H-pyrazole-5-carboxamide] | 34 | 0.73 | 0.5 |  |  | 
C#Cc1c(-c2cnc3ccccc3c2)c2c(N)ncnc2n1[C@@H]1CCN(C(=O)C=C)C1 [Comparative Example B, (R)-1-(3-(4-Amino-6-ethynyl-5-(quinolin-3-yl)-7H-pyrrolo[2,3-d]pyrimidin-7-yl) -pyrrolidin-1-yl)-prop-2-en-1-one, reference compound] | 1080 | 0.95 | 93 |  |  | 
C#Cc1c(-c2cnc3ccccc3c2)c2c(N)ncnc2n1C12CCC(NC(=O)c3ccnnc3)(CC1)C2 [Example 3, N-(4-(4-Amino-6-ethynyl-5-(quinolin-3-yl)-7H-pyrrolo[2,3-d]pyrimidin-7-yl)bicyclo-[2.2.1]heptan-1-yl)pyridazine-4-carboxamide] | 56 | 0.45 | < 0.3 |  |  | 

Next, values leading:

GI50 [1, 3] [nM] | IC50 (human EGFR (WT); [4]) [nM] | IC50 [2, 5] [nM] | GI50 [1, 6] [nM] | IC50 (human EGFR (WT); Test Example 3, Table 12; same procedures as 5) in Test Example 1) [nM] | IC50 ([2]; Test Example 3, Table 10; same procedures as 3) in Test Example 1) [nM] | Structure (SMILES)
19 | 0.86 | 0.49 |  |  |  | C#Cc1c(-c2cnc3ccccc3c2)c2c(N)ncnc2n1C12CCC(NC(=O)c3cccnn3)(CC1)C2 [Example 49]
 | 1.9 | 0.88 | 162 |  |  | C#Cc1c(-c2cnc3ccccc3c2)c2c(N)ncnc2n1C12CCC(NC(=O)c3nccs3)(CC1)C2 [Example 53]
 |  |  | 73 | 2.8 | 0.51 | C#Cc1c(-c2cnc3ccccc3c2)c2c(N)ncnc2n1C12CCC(NC(=O)[C@@H]3CN(C)CCO3)(CC1)C2 [Example 63, (S)-N-(4-(4-Amino-6-ethynyl-5-(quinolin-3-yl)-7H-pyrrolo[2,3-d]pyrimidin-7-yl) -bicyclo[2.2.1]heptan-1-yl)-4-methylmorpholine-2-carboxamide]
 | 2.1 | 1.4 | 102 |  |  | C#Cc1c(-c2cnc3ccccc3c2)c2c(N)ncnc2n1C12CCC(NC(=O)c3ccco3)(CC1)C2 [Example 41]
 | 1.3 | 0.55 | 44 |  |  | C#Cc1c(-c2cnc3ccccc3c2)c2c(N)ncnc2n1C12CCC(NC(=O)c3cncc(F)c3)(CC1)C2 [Example 35, N-(4-(4-Amino-6-ethynyl-5-(quinolin-3-yl)-7H-pyrrolo[2,3-d]pyrimidin-7-yl)-bicyclo-[2.2.1]heptan-1-yl)-5-fluoronicotinamide]
19 | 0.79 | 0.43 |  |  |  | C#Cc1c(-c2cnc3ccccc3c2)c2c(N)ncnc2n1C12CCC(NC(=O)c3ncco3)(CC1)C2 [Example 46]
 | 2.6 | 0.61 | 59 |  |  | C#Cc1c(-c2cnc3ccccc3c2)c2c(N)ncnc2n1C12CCC(NC(=O)c3noc(C)n3)(CC1)C2 [Example 36, N-(4-(4-Amino-6-ethynyl-5-(quinolin-3-yl)-7H-pyrrolo[2,3-d]pyrimidin-7-yl)-bicyclo-[2.2.1]heptan-1-yl)-5-methyl-1,2,4-oxadiazole-3-carboxamide]
 | 1.5 | 0.75 | 98 |  |  | C#Cc1c(-c2cnc3ccccc3c2)c2c(N)ncnc2n1C12CCC(NC(C)=O)(CC1)C2 [Example 39, N-(4-(4-Amino-6-ethynyl-5-(quinolin-3-yl)-7H-pyrrolo[2,3-d]pyrimidin-7-yl)-bicyclo-[2.2.1]heptan-1-yl)acetamide]
21 | 0.92 | 0.5 |  |  |  | C#Cc1c(-c2cnc3ccccc3c2)c2c(N)ncnc2n1C12CCC(NC(=O)c3cnc(C)cn3)(CC1)C2 [Example 37, N-(4-(4-Amino-6-ethynyl-5-(quinolin-3-yl)-7H-pyrrolo[2,3-d]pyrimidin-7-yl)-bicyclo-[2.2.1]heptan-1-yl)-5-methylpyrazine-2-carboxamide]
24 | 0.75 | 0.46 |  |  |  | C#Cc1c(-c2cnc3ccccc3c2)c2c(N)ncnc2n1C12CCC(NC(=O)c3cnccn3)(CC1)C2 [Example 48]

Source: patent US11786534B2 (TAIHO PHARMACEUTICAL CO., LTD., priority 2019, dated 2023)
